System: Plasmodium berghei
Assay: Luciferase/luciferin-expressing antifolate-resistant parasites were used to infect a culture of HepG2 cells that were pre-incubated with compounds. Infected hepatocytes emit light due to the luciferase reaction. Assay results are presented as the percent inhibition of light emission compared to control. […]
Format: functional
Settings: sporozoite; for IC90: read-out: LUCIFERASE INFECTION ASSAY - IC90
[1] = read-out: LUCIFERASE INFECTION ASSAY - IC50

Work on `CC(C)Cn1c(N)c(C(=O)COC(=O)c2c3c(nc4ccccc24)CCCCC3)c(=O)n(C)c1=O` yielded an IC50 (HEPG2TOX_HILL_SLOPE 9.18, HEPG2TOX_R_SQUARED 0.068, PBLUC_HILL_SLOPE 16.7, PBLUC_R_SQUARED 0.609, read-out: LUCIFERASE INFECTION ASSAY - IC50) of 1.11 µM and an IC90 of 1.27 µM.

Work on `Cc1cccc(C)c1/N=c1\scc(-c2cccc(Cl)c2)n1/N=C/C1CC=CCC1` (centres undefined) yielded an IC50 [1] of over 10 µM and an IC90 of over 10 µM.

Compound `COc1cccc(/C=C/c2nnc(O)c(C#N)c2C)c1` has an IC50 (HEPG2TOX_HILL_SLOPE 3.05, HEPG2TOX_R_SQUARED 0.959, PBLUC_HILL_SLOPE 3.8, PBLUC_R_SQUARED 0.551, read-out: LUCIFERASE INFECTION ASSAY - IC50) of 3.79 µM and an IC90 of 6.75 µM.

`COC(=O)c1cc2c(N)c(C(=O)c3cc(C#N)c(SC)nc3C)sc2nc1C` showed an IC50 [1] of 5.83 µM and an IC90 of over 10 µM.

With `Cc1cccc(NC(=O)CN2C(=O)/C(=C(/C#N)c3nc4ccccc4[nH]3)c3ccccc32)c1` the IC50 (FFLUC_HILL_SLOPE 4.46, FFLUC_R_SQUARED 0.474, HEPG2TOX_HILL_SLOPE 6.44, HEPG2TOX_R_SQUARED 0.532, PBLUC_HILL_SLOPE 2.02, PBLUC_R_SQUARED 0.59, read-out: LUCIFERASE INFECTION ASSAY - IC50) was 5.68 µM and the IC90 was over 10 µM.

Compound `O=C1C(=O)N(Cc2cc3c(cc2Cl)OCO3)c2ccc(Cl)cc21` has an IC50 (FFLUC_HILL_SLOPE 2.77, FFLUC_R_SQUARED 0.777, PBLUC_HILL_SLOPE 11.7, PBLUC_R_SQUARED 0.0264, read-out: LUCIFERASE INFECTION ASSAY - IC50) of 8.5 µM and an IC90 of over 9.42 µM.

`CC1SC(=Nc2ccc(S(=O)(=O)N3CCOCC3)cc2)NN=C1C12CC3CC(CC(C3)C1)C2` (centres undefined) showed an IC50 [1] of over 10 µM and an IC90 of over 10 µM.

`CC(C)c1ccc(-c2cnc3sc(NC4CCC(O)CC4)nn23)cc1` (centres undefined) was tested, and the IC50 (PBLUC_HILL_SLOPE 11.9, PBLUC_R_SQUARED 0.449, read-out: LUCIFERASE INFECTION ASSAY - IC50) was 8.25 µM and the IC90 was over 9.26 µM.

With `NC(=O)c1c(NC(=O)/C=C/c2cn(-c3ccccc3)nc2-c2cccnc2)sc2c1CCCC2` the IC50 [1] was over 10 µM and the IC90 was over 10 µM.

For `Cc1ccc2c(c1)CCCN2C(=O)CCc1nc(O)c2ccccc2n1`, the IC50 (HEPG2TOX_HILL_SLOPE 1.38, HEPG2TOX_R_SQUARED 0.978, PBLUC_HILL_SLOPE 0.881, PBLUC_R_SQUARED 0.443, read-out: LUCIFERASE INFECTION ASSAY - IC50) was 3.89 µM and the IC90 was over 10 µM.

For `Cc1nn2c(SCC(=O)O)cc(C(C)(C)C)nc2c1-c1ccc(Cl)cc1`, the IC50 [1] was over 8.46 µM and the IC90 was over 8.46 µM.

`COc1ccccc1NS(=O)(=O)c1ccc2nc(-c3ccncc3)[nH]c2c1` showed an IC50 [1] of over 10 µM and an IC90 of over 10 µM.

`NS(=O)(=O)c1ccc(CCNc2nn3c(-c4cccc(Cl)c4)cnc3s2)cc1` showed an IC50 (FFLUC_HILL_SLOPE 1.14, FFLUC_R_SQUARED 0.295, read-out: LUCIFERASE INFECTION ASSAY - IC50) of over 7.6 µM and an IC90 of over 7.6 µM.

Compound `Cc1ccc(Cn2ncc3c(C(=O)N4CCN(c5ncccn5)CC4)cc(C)nc32)cc1` has an IC50 (HEPG2TOX_HILL_SLOPE 0.12, HEPG2TOX_R_SQUARED 0.204, PBLUC_HILL_SLOPE 1.61, PBLUC_R_SQUARED 0.516, read-out: LUCIFERASE INFECTION ASSAY - IC50) of 8.29 µM and an IC90 of over 10 µM.

For `CNC(=O)c1nn(CC2CCCCC2)c2c1CC(NC1CCN(Cc3ccccc3)CC1)CC2` (centres undefined), the IC50 (PBLUC_HILL_SLOPE 1.91, PBLUC_R_SQUARED 0.276, read-out: LUCIFERASE INFECTION ASSAY - IC50) was 6.52 µM and the IC90 was over 7.12 µM.

For `CC(CO)NCCOCCOc1ccc(Cl)cc1Cc1ccccc1` (centres undefined), the IC50 [1] was over 10 µM and the IC90 was over 10 µM.

With `O=c1c(Cl)c(Cl)cnn1-c1ccc(F)c(Cl)c1` the IC50 (HEPG2TOX_HILL_SLOPE 3.48, HEPG2TOX_R_SQUARED 0.867, PBLUC_HILL_SLOPE 16.6, PBLUC_R_SQUARED 0.498, read-out: LUCIFERASE INFECTION ASSAY - IC50) was 3.81 µM and the IC90 was 4.35 µM.

Work on `CCOc1ccccc1NC(=O)Cc1nc2nc(C)cc(C)n2n1` yielded an IC50 [1] of over 10.1 µM and an IC90 of over 10.1 µM.

`CCCCC#CC1(O)c2ccccc2C(=O)N1c1ccccc1` (centres undefined) gave an IC50 (HEPG2TOX_HILL_SLOPE 16.6, HEPG2TOX_R_SQUARED 0.582, PBLUC_HILL_SLOPE 7.49, PBLUC_R_SQUARED 0.197, read-out: LUCIFERASE INFECTION ASSAY - IC50) of 7.01 µM and an IC90 of 9.4 µM.

`CN(C)S(=O)(=O)c1ccc(N2CCCC2)c(C(=O)N2CCCC2)c1` was tested, and the IC50 [1] was over 10 µM and the IC90 was over 10 µM.

Compound `CCSc1ccc(-c2cc(NC=O)c3ncc(-c4cccc(C(=O)NCCN(C)C)c4)n3c2)cc1` has an IC50 [1] of over 6.77 µM and an IC90 of over 6.77 µM.

`Cc1ccc(-c2cc(C(=O)N(C)Cc3ccc(C(=O)NC4CC4)cc3)on2)cc1` was tested, and the IC50 [1] was over 10 µM and the IC90 was over 10 µM.

`COc1ccc(-c2nc3ccc(NC(=O)Nc4ccc(F)c(Cl)c4)cn3n2)cc1` showed an IC50 (PBLUC_HILL_SLOPE 3.84, PBLUC_R_SQUARED 0.577, read-out: LUCIFERASE INFECTION ASSAY - IC50) of 4.62 µM and an IC90 of 8.19 µM.

`Cc1sc2ncn(/N=C/c3ccc(N(c4ccccc4)c4ccccc4)cc3)c(=O)c2c1C` was tested, and the IC50 (FFLUC_HILL_SLOPE 0.996, FFLUC_R_SQUARED 0.715, HEPG2TOX_HILL_SLOPE 1.1, HEPG2TOX_R_SQUARED 0.992, PBLUC_HILL_SLOPE 2.81, PBLUC_R_SQUARED 0.433, read-out: LUCIFERASE INFECTION ASSAY - IC50) was 1.84 µM and the IC90 was 4.02 µM.

`O=C(OCC1CCCCC1)c1[nH]nc2ccccc12` showed an IC50 [1] of over 10 µM and an IC90 of over 10 µM.

For `Cc1cc(C)cc(-n2c(C)cc(C(=O)CNC(=O)NCc3ccccc3)c2C)c1`, the IC50 (HEPG2TOX_HILL_SLOPE 1.59, HEPG2TOX_R_SQUARED 0.958, PBLUC_HILL_SLOPE 2.43, PBLUC_R_SQUARED 0.455, read-out: LUCIFERASE INFECTION ASSAY - IC50) was 1.32 µM and the IC90 was 3.27 µM.

`COc1ccc(C(C)C)cc1-c1cnc(N)c(-c2ccc(F)c(Cl)c2)c1` gave an IC50 (HEPG2TOX_HILL_SLOPE 11.3, HEPG2TOX_R_SQUARED 0.599, PBLUC_HILL_SLOPE 2.08, PBLUC_R_SQUARED 0.63, read-out: LUCIFERASE INFECTION ASSAY - IC50) of 3.98 µM and an IC90 of over 8.9 µM.

For `CC(C)c1ccc(-c2cnc3sc(NCc4cccnc4)nn23)cc1`, the IC50 [1] was over 9.44 µM and the IC90 was over 9.44 µM.

`Cn1cnnc1C1CCCN(S(C)(=O)=O)C1` (centres undefined) was tested, and the IC50 [1] was over 10 µM and the IC90 was over 10 µM.

Work on `CCN(CC)c1ccc(Nc2nc(-c3c(C)nc4ncccn34)cs2)cc1` yielded an IC50 (HEPG2TOX_HILL_SLOPE 1.79, HEPG2TOX_R_SQUARED 0.957, PBLUC_HILL_SLOPE 3.27, PBLUC_R_SQUARED 0.301, read-out: LUCIFERASE INFECTION ASSAY - IC50) of 3.35 µM and an IC90 of 6.56 µM.

Work on `CCOc1ccc2nc3cc(N)ccc3c(N)c2c1` [ETHACRIDINE] yielded an IC50 (HEPG2TOX_HILL_SLOPE 3.77, HEPG2TOX_R_SQUARED 0.987, read-out: LUCIFERASE INFECTION ASSAY - IC50) of over 9.61 µM and an IC90 of over 9.61 µM.

`O=C1Nc2ccccc2/C1=C/c1ccccc1N1CCOCC1` showed an IC50 (HEPG2TOX_HILL_SLOPE 1.93, HEPG2TOX_R_SQUARED 0.799, PBLUC_HILL_SLOPE 2.49, PBLUC_R_SQUARED 0.295, read-out: LUCIFERASE INFECTION ASSAY - IC50) of 5.94 µM and an IC90 of over 10.8 µM.

`COc1cccc(-c2nccc3n[nH]c(-c4cccc(OC(F)(F)F)c4)c23)c1` was tested, and the IC50 (FFLUC_HILL_SLOPE 1.32, FFLUC_R_SQUARED 0.557, read-out: LUCIFERASE INFECTION ASSAY - IC50) was over 10 µM and the IC90 was over 10 µM.

Work on `Cc1cc(C(=O)ONC(=N)c2c(-c3c(Cl)cccc3Cl)noc2C)no1` yielded an IC50 (PBLUC_HILL_SLOPE 25.8, PBLUC_R_SQUARED 0.198, read-out: LUCIFERASE INFECTION ASSAY - IC50) of 8.05 µM and an IC90 of over 8.35 µM.

Compound `CCOc1cc(-c2nccc3cc(OC)c(OC)cc23)cc(OCC)c1OCC` [OCTAVERINE] has an IC50 (PBLUC_HILL_SLOPE 10.1, PBLUC_R_SQUARED 0.35, read-out: LUCIFERASE INFECTION ASSAY - IC50) of 6.45 µM and an IC90 of 8.02 µM.

With `CCc1c(C)sc2[nH]c(-c3ccc(C(=O)N4CCN(S(=O)(=O)c5c(Cl)cccc5Cl)CC4)cc3)nc(=O)c12` the IC50 (PBLUC_HILL_SLOPE 2.05, PBLUC_R_SQUARED 0.76, read-out: LUCIFERASE INFECTION ASSAY - IC50) was 1.49 µM and the IC90 was 4.36 µM.

Work on `CCCn1nc(C(=O)OCC(=O)c2cc(C)n(CC(F)(F)F)c2C)c2ccccc2c1=O` yielded an IC50 (PBLUC_HILL_SLOPE 0.53, PBLUC_R_SQUARED 0.241, read-out: LUCIFERASE INFECTION ASSAY - IC50) of over 10 µM and an IC90 of over 10 µM.

In the case of `Clc1nc2ccc3nsnc3c2nc1Cl`, the IC50 (HEPG2TOX_HILL_SLOPE 109, HEPG2TOX_R_SQUARED 0.525, PBLUC_HILL_SLOPE 3.55, PBLUC_R_SQUARED 0.399, read-out: LUCIFERASE INFECTION ASSAY - IC50) is reported as 1.96 µM and the IC90 is reported as 3.65 µM.

With `COc1cccc(-c2cc3c(Nc4ccc(Oc5ccccc5)cc4)nccc3[nH]2)c1` the IC50 (HEPG2TOX_HILL_SLOPE 11.8, HEPG2TOX_R_SQUARED 0.973, PBLUC_HILL_SLOPE 14.2, PBLUC_R_SQUARED 0.35, read-out: LUCIFERASE INFECTION ASSAY - IC50) was 3.43 µM and the IC90 was 4 µM.

Work on `CCOC(=O)c1c(NC(=O)CSc2ncnc3scc(-c4ccc(OC)cc4)c23)sc2c1CCCC2` yielded an IC50 (HEPG2TOX_HILL_SLOPE 1.83, HEPG2TOX_R_SQUARED 0.223, read-out: LUCIFERASE INFECTION ASSAY - IC50) of over 10 µM and an IC90 of over 10 µM.

For `CCOC(=O)/C(=C\c1cccc(F)c1)C1=Nn2c(nnc2-c2ccc(OC)cc2)SC1`, the IC50 (HEPG2TOX_HILL_SLOPE 19.5, HEPG2TOX_R_SQUARED 0.849, PBLUC_HILL_SLOPE 122, PBLUC_R_SQUARED 0.536, read-out: LUCIFERASE INFECTION ASSAY - IC50) was 6.31 µM and the IC90 was 6.43 µM.

`O=C(NNc1cc(C(F)(F)F)nc2ccccc12)Nc1ccc(Cl)cc1` was tested, and the IC50 [1] was over 8.67 µM and the IC90 was over 8.67 µM.
